In patent US6608086B2, “Dihydropyridines and new uses thereof” (Synaptic Pharmaceutical Corporation, priority 1993, dated 2003):
Structures can show the parent of a compound that is named as a salt. Where two headings read alike, the source gives them in different places. One block for each compound: values may come before it.

Assays:
[1] = molecular target: T1, α1B Human Adrenergic Receptor (Homo sapiens, UniProt P35368); assay: Radioligand binding, [3H]prazosin, cloned human α1B adrenergic receptor
T1 construct: The entire coding region of α1B (1563 bp); expressed in transfected cells
T1 sequence (P35368 1-520): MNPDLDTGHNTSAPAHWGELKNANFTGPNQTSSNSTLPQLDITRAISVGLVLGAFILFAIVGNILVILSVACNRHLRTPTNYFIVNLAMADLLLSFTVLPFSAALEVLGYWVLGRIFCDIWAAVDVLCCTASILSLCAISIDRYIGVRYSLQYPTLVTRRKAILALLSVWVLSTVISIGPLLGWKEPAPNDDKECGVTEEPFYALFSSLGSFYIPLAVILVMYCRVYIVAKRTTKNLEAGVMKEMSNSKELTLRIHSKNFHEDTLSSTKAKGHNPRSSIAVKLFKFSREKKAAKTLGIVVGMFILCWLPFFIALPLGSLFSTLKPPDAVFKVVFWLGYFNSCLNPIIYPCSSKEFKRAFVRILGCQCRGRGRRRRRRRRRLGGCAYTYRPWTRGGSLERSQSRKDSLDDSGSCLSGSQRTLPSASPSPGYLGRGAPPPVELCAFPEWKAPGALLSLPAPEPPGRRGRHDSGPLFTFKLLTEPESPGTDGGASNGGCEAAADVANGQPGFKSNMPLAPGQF
Procedure: (§1) The protocols for these experiments are given below.
(§2) These cell lines were prepared by transfecting the cloned cDNA or cloned genomic DNA or constructs containing both genomic DNA and cDNA encoding the human α-adrenergic receptors as follows:
α1B Human Adrenergic Receptor:
The construct involved ligating the full-length containing EcoRI brainstem cDNA fragment from λ ZapII into the expression vector. Stable cell lines were selected as described above.
(§3) Radioligand Binding Assays:
(§4) Transfected cells from culture flasks were scraped into 5 ml of 5 mM Tris-HCl, 5 mM EDTA, pH 7.5, and lysed by sonication. The cell lysates were centrifuged at 1000 rpm for 5 min at 4° C., and the supernatant was centrifuged at 30,000× g for 20 min at 4° C. The pellet was suspended in 50 mM Tris-HCl, 1 mM MgCl2, and 0.1% ascorbic acid at pH 7.5. Binding of the α1 antagonist [^3H]prazosin (0.5 nM, specific activity 76.2 Ci/mmol) to membrane preparations of LM(tk−) cells was done in a final volume of 0.25 ml and incubated at 37° C. for 20 min. Nonspecific binding was determined in the presence of 10 μM phentolamine. The reaction was stopped by filtration through GF/B filters using a cell harvester.

[2] = molecular target: T2, α1A Human Adrenergic Receptor (Homo sapiens, UniProt P25100); assay: Radioligand binding, [3H]prazosin, cloned human α1A adrenergic receptor
T2 construct: The entire coding region of α1A (1719 bp); expressed in transfected cells
T2 sequence (P25100 1-572): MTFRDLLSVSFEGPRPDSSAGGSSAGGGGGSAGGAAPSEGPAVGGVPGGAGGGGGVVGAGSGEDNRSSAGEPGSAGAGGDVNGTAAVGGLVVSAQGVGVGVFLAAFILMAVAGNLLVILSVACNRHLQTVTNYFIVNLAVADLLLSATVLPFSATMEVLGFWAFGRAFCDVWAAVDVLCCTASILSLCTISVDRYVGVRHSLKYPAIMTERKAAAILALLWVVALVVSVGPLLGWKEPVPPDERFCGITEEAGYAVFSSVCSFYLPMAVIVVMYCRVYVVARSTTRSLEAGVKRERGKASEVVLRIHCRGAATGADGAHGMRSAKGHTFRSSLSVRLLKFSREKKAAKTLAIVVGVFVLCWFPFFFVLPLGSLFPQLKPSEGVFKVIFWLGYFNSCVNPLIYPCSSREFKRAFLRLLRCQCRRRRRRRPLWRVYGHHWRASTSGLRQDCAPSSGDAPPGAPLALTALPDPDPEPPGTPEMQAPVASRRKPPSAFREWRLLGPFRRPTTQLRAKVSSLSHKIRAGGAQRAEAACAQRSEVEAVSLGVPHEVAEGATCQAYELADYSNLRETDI
Procedure: as §1, §2
α1A Human Adrenergic Receptor:
The cells were grown, in a controlled environment (37° C., 5% CO2), as monolayers in Dulbecco's modified Eagle's Medium (GIBCO, Grand Island, N.Y.) containing 25 mM glucose and supplemented with 10% bovine calf serum, 100 units/ml penicillin g, and 100 μg/ml streptomycin sulfate.
as §3, §4

[3] = molecular target: T3, α1C Human Adrenergic Receptor (Homo sapiens, UniProt P35348); assay: Radioligand binding, [3H]prazosin, cloned human α1C adrenergic receptor
T3 construct: The entire coding region of α1C (1401 bp); expressed in transfected cells
T3 sequence (P35348 1-466): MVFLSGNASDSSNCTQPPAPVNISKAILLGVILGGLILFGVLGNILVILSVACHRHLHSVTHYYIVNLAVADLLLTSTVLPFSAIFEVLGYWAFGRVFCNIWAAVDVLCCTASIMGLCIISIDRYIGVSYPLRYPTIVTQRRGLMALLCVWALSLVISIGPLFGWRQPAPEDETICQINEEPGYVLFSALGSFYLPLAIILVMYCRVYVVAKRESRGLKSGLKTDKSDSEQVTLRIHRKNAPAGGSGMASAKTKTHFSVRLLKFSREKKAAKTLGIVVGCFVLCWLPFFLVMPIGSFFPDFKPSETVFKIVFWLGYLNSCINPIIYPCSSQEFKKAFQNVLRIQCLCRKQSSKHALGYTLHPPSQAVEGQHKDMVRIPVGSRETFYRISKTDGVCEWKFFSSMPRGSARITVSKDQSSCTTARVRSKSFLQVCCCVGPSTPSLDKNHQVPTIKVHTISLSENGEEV
Procedure: as §1, §2
α1C Human Adrenergic Receptor:
The construct involved ligating three partial overlapping fragments: a 5′, 0.6 kb HincII genomic clone, a central 1.8 EcoRI hippocampal cDNA clone, and a 3′ 0.6Kb PstI genomic clone. The hippocampal cDNA fragment overlaps with the 5′ and 3′ genomic clones so that the HincII and PstI sites at the 5′ and 3′ ends of the cDNA clone, respectively, were utilized for ligation. This full-length clone was cloned into the KpnI site of the expression vector, using the 5′ and 3′ KpnI sites of the fragment, derived from vector (i.e., pBluescript) and 3′-untranslated sequences, respectively. Stable cell lines were selected as described above.
as §3, §4

[4] = cloned human α1B receptor, LM(tk−) cell membranes, read-out: pKi alpha-1 1b (converted)
[5] = cloned human α1C receptor, LM(tk−) cell membranes, read-out: pKi alpha-1 1c (converted)
[6] = [3H]prazosin, cloned human α1A receptor, LM(tk−) cell membranes, read-out: pKi alpha-1 1a (converted)
[7] = [3H]prazosin, cloned human receptor, LM(tk-) cell membranes, mean, read-out: PKi alpha-1 1a (converted)
[8] = cloned human receptor, LM(tk-) cell membranes, mean, read-out: PKi alpha-1 1b (converted)
[9] = cloned human receptor, LM(tk-) cell membranes, mean, read-out: PKi alpha-1 1c (converted)

SMILES: CCOC(=O)C1=C(CC(=O)NCCCN2CCC(c3ccccc3)(c3ccccc3)CC2)NC(C)=C(C(=O)OC)C1c1ccc([N+](=O)[O-])cc1 (centres unmarked) (as salt: fumarate) [Example 89, 3-Ethoxycarbonyl-1,4-dihydro-5-methoxycarbonyl-6-methyl-4-(4-nitro)phenyl-2-(N-(3-(4,4,-diphenylpiperidin-1-yl)propyl)carboxamido)methylpyridine, fumarate salt]
melting point: 134 to 137 °C

SMILES: CCC1=C(C(=O)NCCCN2CCC(c3ccccc3)(c3ccccc3)CC2)C(c2ccc([N+](=O)[O-])cc2)C(C(=O)OCc2ccccc2)=C(C)N1 (centres unmarked) (as salt: hydrochloride) (hydrate or solvate) [Example 4, 5-Benzyloxycarbonyl-2-ethyl-1,4-dihydro-6-methyl-4-(4-nitrophenyl)-3-(N-(3-(4,4-diphenylpiperidin-1-yl)propyl)carboxamido) pyridine, Hydrochloride Salt, Hydrate]
melting point: 195 to 198 °C (dec.)

SMILES: CNC(=O)C1=C(C)NC(C)=C(C(=O)NCCCN2CCC(c3ccccc3)(c3ccccc3)CC2)C1c1ccc([N+](=O)[O-])cc1 (single isomer, unassigned; (+)) [(+)-119, 1,4-dihydro-2,6-dimethyl-5-(N-methyl) carboxamido-4-(4-nitrophenyl)-3-{N-[3-(4,4-diphenylpiperidin-1-yl)propyl]} carboxamidopyridine]
Ki [1, 4]: 832 nM
Ki ([2]; pKi alpha-1 1a): 1290 nM
Ki [3, 5]: 380 nM

SMILES: CNC(=O)C1=C(C)NC(C)=C(C(=O)NCCCN2CCC(c3ccccc3)(c3ccccc3)CC2)C1c1ccc([N+](=O)[O-])cc1 (single isomer, unassigned; (-)) [(−)-119, 1,4-dihydro-2,6-dimethyl-5-(N-methyl) carboxamido-4-(4-nitrophenyl)-3-{N-[3-(4,4-diphenylpiperidin-1-yl)propyl]} carboxamidopyridine]
Ki [1, 4]: 676 nM
Ki ([2]; pKi alpha-1 1a): 1170 nM
Ki [3, 5]: 2.57 nM

SMILES: COC(=O)C1=C(C)NC(C)=C(C(=O)NCCCN2CCc3ccccc3C2)C1c1ccc([N+](=O)[O-])cc1 (centres unmarked) [Example 59, 1,4-Dihydro-5-{N-[3-(1,2,3,4-tetrahydroisoquinolin-2-yl)propyl]}carboxamido-3-methoxycarbonyl-2,6-dimethyl-4-(4-nitrophenyl)pyridine hydrochloride hydrate]
Ki ([1]; cloned human receptor in LM(tk-) cell membranes, SEM and n in lines below, read-out: pKi alpha-1 1b (converted)): 389 nM
Ki ([2]; [3H]prazosin, cloned human receptor in LM(tk-) cell membranes, SEM and n in lines below, read-out: pKi alpha-1 1a (converted)): 513 nM
Ki ([3]; cloned human receptor in LM(tk-) cell membranes, SEM and n in lines below, read-out: pKi alpha-1 1c (converted)): 245 nM

SMILES: CCC1=C(C(=O)NCCCN2CCC(c3ccccc3)(c3ccccc3)CC2)C(c2ccc([N+](=O)[O-])cc2)C(C(=O)OC(C)(C)C)=C(COCCN)N1 (centres unmarked) [Example 140]
Ki [1, 4]: 14500 nM
Ki [2, 6]: 7240 nM
Ki [3, 5]: 7080 nM

SMILES: CC1=C(C(=O)OCC[Si](C)(C)C)C(c2ccc([N+](=O)[O-])cc2)C(C(=O)NCCCN2CCC(c3ccccc3)(c3ccccc3)CC2)=C(COCCN=[N+]=[N-])N1 (centres unmarked) [Example 152, 2-((2-Azidoethyl)oxy)methyl-1,4-dihydro-6-methyl-s-(2-trimethylsilylethoxy)carbonyl-4-(4-nitro)phenyl-3-(N-(3-(4,4-diphenylpiperidin-1-yl)propyl))carboxamidopyridine]
Ki [1, 4]: 219 nM
Ki [2, 6]: 490 nM
Ki [3, 5]: 933 nM

SMILES: COC(=O)C1=C(C)NC(C)=C(C(=O)NCCCN2CCC(C(=O)OC)(c3ccccc3)CC2)C1c1ccc([N+](=O)[O-])cc1 (centres unmarked) [Example 206, 1,4-Dihydro-2,6-dimethyl-5-methoxycarbonyl-3-{N-[3-(4-methoxycarbonyl-4-phenylpiperidin-1-yl)propyl]}carboxamido-4-(4-nitrophenyl)pyridine]
Ki [2, 7]: 1150 nM

SMILES: CC(=O)C1=C(C)NC(COCCCN)=C(C(=O)NCCCN2CCC(c3ccccc3)(c3ccccc3)CC2)C1c1ccc([N+](=O)[O-])cc1 (centres unmarked) [Example 236, 5-Acetyl-2-((3-aminopropyl)oxy)methyl-1,4-dihydro-6-methyl-4-(4-nitro)phenyl-3-(N-(3-(4,4-diphenylpiperidin-1-yl)propyl)) carboxamidopyridine]
Ki [1, 8]: 204 nM
Ki [2, 7]: 347 nM
Ki [3, 9]: 2.51 nM

Second part, the compound after the results:

melting point: 88 to 93 °C
SMILES: CCC1=C(C(N)=O)C(c2ccc([N+](=O)[O-])cc2)C(C(=O)NCCCN2CCC(c3ccccc3)(c3ccccc3)CC2)=C(COCCN=[N+]=[N-])N1 (centres unmarked)

melting point: 136 to 137 °C
SMILES: COC(=O)C1=C(C)NC(C)=C(C(=O)NCCCCN2CCC(c3ccccc3)CC2)C1c1ccc([N+](=O)[O-])cc1 (centres unmarked) (as salt: hydrochloride) (hydrate or solvate) [Example 3, 1,4-Dihydro-3-methoxycarbonyl-2,6-dimethyl-4-(4-nitrophenyl)-5-{N-[4-(4-phenylpiperidin-1-yl)butyl]}carbozamidopyridine hydrochloride hydrate]

Ki [1, 4]: 4170 nM
Ki [2, 6]: 2950 nM
Ki [3, 5]: 6.92 nM
SMILES: CCC1=C(C(=O)NC)C(c2ccc([N+](=O)[O-])cc2)C(C(=O)NCCCN2CCC(OC)(c3ccccc3)CC2)=C(CC)N1 (centres unmarked) [Example 108]

Ki [1, 4]: 417 nM
Ki [2, 6]: 912 nM
Ki [3, 5]: 10.7 nM
SMILES: CCC1=C(C(=O)O)C(c2ccc([N+](=O)[O-])cc2)C(C(=O)NCCCN2CCC(c3ccccc3)(c3ccccc3)CC2)=C(CC)N1 (centres unmarked) [Example 130, 2,6-Diethyl-1,4-dihydro-4-(4-nitrophenyl)-5-{N-[3-(4,4-diphenylpiperidin-1-yl)propyl]}carboxamidopyridine-3-carboxylic acid]

Ki [1, 8]: 1260 nM
Ki [2, 7]: 3390 nM
Ki [3, 9]: 3.63 nM
SMILES: CC1=C(C(N)=O)C(c2ccc([N+](=O)[O-])cc2)C(C(=O)NCCCN2CCC(C#N)(c3ccccc3)CC2)=C(COCCN)N1 (centres unmarked) [Example 215]
